ChEMBL document CHEMBL1649203, “Pharmacokinetics and safety of famciclovir in children with herpes simplex or varicella-zoster virus infection” (Antimicrob Agents Chemother, 2009)

Experiments:
Homo sapiens [1] = assay: Toxicity in HSV-infected 6 to <=12 years aged pediatric patient assessed as incidence of abdominal pain at 23.5 mg/kg, po bid; type: organism-based, Abdomen; parameters: dose 23.5 mg/kg, route oral; conditions: in vivo
Homo sapiens [2] = assay: Toxicity in orally dosed HSV-infected patient assessed as incidence of abdominal pain administered as bid; type: organism-based, Abdomen; conditions: in vivo, po
Homo sapiens [3] = assay: Toxicity in HSV-infected 1 to <2 years aged pediatric patient assessed as pyrexia at 30.9 mg/kg, po administered as bid; type: organism-based; parameters: dose 30.9 mg/kg, route oral; conditions: in vivo
Homo sapiens [4] = assay: Toxicity in HSV-infected 2 to <6 years aged pediatric patient assessed as pyrexia at 27.6 mg/kg, po bid; type: organism-based; parameters: dose 27.6 mg/kg, route oral; conditions: in vivo
Homo sapiens [5] = assay: Toxicity in HSV-infected 6 to <=12 years aged pediatric patient assessed as pyrexia at 23.5 mg/kg, po bid; type: organism-based; parameters: dose 23.5 mg/kg, route oral; conditions: in vivo
Homo sapiens [6] = assay: Toxicity in orally dosed HSV-infected patient assessed as pyrexia administered as bid; type: organism-based; conditions: in vivo, po
Homo sapiens [7] = assay: Toxicity in VZV-infected 1 to <2 years aged pediatric patient assessed as at least one adverse event at 40.8 mg/kg, po tid; type: organism-based; parameters: dose 40.8 mg/kg, route oral; conditions: in vivo
Homo sapiens [8] = assay: Toxicity in VZV-infected 2 to <6 years aged pediatric patient assessed as at least one adverse event at 40.6 mg/kg, po tid; type: organism-based; parameters: dose 40.6 mg/kg, route oral; conditions: in vivo
Homo sapiens [9] = assay: Toxicity in VZV-infected 6 to <=12 years aged pediatric patient assessed as at least one adverse event at 35.5 mg/kg, po tid; type: organism-based; parameters: dose 35.5 mg/kg, route oral; conditions: in vivo
Homo sapiens [10] = assay: Toxicity in orally dosed VZV-infected patient assessed as at least one adverse event administered as tid; type: organism-based; conditions: in vivo, po
Homo sapiens [11] = assay: Toxicity in VZV-infected 1 to <2 years aged pediatric patient assessed as incidence of diarrhea at 40.8 mg/kg, po tid; type: organism-based; parameters: dose 40.8 mg/kg, route oral; conditions: in vivo
Homo sapiens [12] = assay: Toxicity in VZV-infected 2 to <6 years aged pediatric patient assessed as incidence of diarrhea at 40.6 mg/kg, po tid; type: organism-based; parameters: dose 40.6 mg/kg, route oral; conditions: in vivo
Homo sapiens [13] = assay: Toxicity in VZV-infected 6 to <=12 years aged pediatric patient assessed as incidence of diarrhea at 35.5 mg/kg, po tid; type: organism-based; parameters: dose 35.5 mg/kg, route oral; conditions: in vivo
Homo sapiens [14] = assay: Toxicity in orally dosed VZV-infected patient assessed as incidence of diarrhea administered as tid; type: organism-based; conditions: in vivo, po
Homo sapiens [15] = assay: Toxicity in VZV-infected 1 to <2 years aged pediatric patient assessed as incidence of vomiting at 40.8 mg/kg, po tid; type: organism-based; parameters: dose 40.8 mg/kg, route oral; conditions: in vivo
Homo sapiens [16] = assay: Toxicity in VZV-infected 2 to <6 years aged pediatric patient assessed as incidence of vomiting at 40.6 mg/kg, po tid; type: organism-based; parameters: dose 40.6 mg/kg, route oral; conditions: in vivo
Homo sapiens [17] = assay: Toxicity in VZV-infected 6 to <=12 years aged pediatric patient assessed as incidence of vomiting at 35.5 mg/kg, po tid; type: organism-based; parameters: dose 35.5 mg/kg, route oral; conditions: in vivo
Homo sapiens [18] = assay: Toxicity in orally dosed VZV-infected patient assessed as incidence of vomiting administered as tid; type: organism-based; conditions: in vivo, po
Homo sapiens [19] = assay: Toxicity in VZV-infected 1 to <2 years aged pediatric patient assessed as pyrexia at 40.8 mg/kg, po tid; type: organism-based; parameters: dose 40.8 mg/kg, route oral; conditions: in vivo
Homo sapiens [20] = assay: Toxicity in VZV-infected 2 to <6 years aged pediatric patient assessed as pyrexia at 40.6 mg/kg, po tid; type: organism-based; parameters: dose 40.6 mg/kg, route oral; conditions: in vivo
Homo sapiens [21] = assay: Toxicity in VZV-infected 6 to <=12 years aged pediatric patient assessed as pyrexia at 35.5 mg/kg, po tid; type: organism-based; parameters: dose 35.5 mg/kg, route oral; conditions: in vivo
Homo sapiens [22] = assay: Toxicity in orally dosed VZV-infected patient assessed as pyrexia administered as tid; type: organism-based; conditions: in vivo, po
Homo sapiens [23] = assay: Toxicity in VZV-infected 1 to <2 years aged pediatric patient assessed as incidence of abdominal pain at 40.8 mg/kg, po tid; type: organism-based, Abdomen; parameters: dose 40.8 mg/kg, route oral; conditions: in vivo
Homo sapiens [24] = assay: Toxicity in VZV-infected 2 to <6 years aged pediatric patient assessed as incidence of abdominal pain at 40.6 mg/kg, po tid; type: organism-based, Abdomen; parameters: dose 40.6 mg/kg, route oral; conditions: in vivo
Homo sapiens [25] = assay: Toxicity in VZV-infected 6 to <=12 years aged pediatric patient assessed as incidence of abdominal pain at 35.5 mg/kg, po tid; type: organism-based, Abdomen; parameters: dose 35.5 mg/kg, route oral; conditions: in vivo
Homo sapiens [26] = assay: Toxicity in orally dosed VZV-infected patient assessed as incidence of abdominal pain administered as tid; type: organism-based, Abdomen; conditions: in vivo, po
Homo sapiens [27] = assay: Toxicity in VZV-infected 1 to <2 years aged pediatric patient assessed as incidence of nausea at 40.8 mg/kg, po tid; type: organism-based; parameters: dose 40.8 mg/kg, route oral; conditions: in vivo
Homo sapiens [28] = assay: Toxicity in VZV-infected 2 to <6 years aged pediatric patient assessed as incidence of nausea at 40.6 mg/kg, po tid; type: organism-based; parameters: dose 40.6 mg/kg, route oral; conditions: in vivo
Homo sapiens [29] = assay: Toxicity in VZV-infected 6 to <=12 years aged pediatric patient assessed as incidence of nausea at 35.5 mg/kg, po tid; type: organism-based; parameters: dose 35.5 mg/kg, route oral; conditions: in vivo
Homo sapiens [30] = assay: Toxicity in orally dosed VZV-infected patient assessed as incidence of nausea administered as tid; type: organism-based; conditions: in vivo, po
Homo sapiens [31] = assay: Toxicity in VZV-infected 1 to <2 years aged pediatric patient assessed as incidence of cellulitis at 40.8 mg/kg, po tid; type: organism-based; parameters: dose 40.8 mg/kg, route oral; conditions: in vivo
Homo sapiens [32] = assay: Toxicity in VZV-infected 2 to <6 years aged pediatric patient assessed as incidence of cellulitis at 40.6 mg/kg, po tid; type: organism-based; parameters: dose 40.6 mg/kg, route oral; conditions: in vivo
Homo sapiens [33] = assay: Toxicity in VZV-infected 6 to <=12 years aged pediatric patient assessed as incidence of cellulitis at 35.5 mg/kg, po tid; type: organism-based; parameters: dose 35.5 mg/kg, route oral; conditions: in vivo
Homo sapiens [34] = assay: Toxicity in orally dosed VZV-infected patient assessed as incidence of cellulitis administered as tid; type: organism-based; conditions: in vivo, po
Homo sapiens [35] = assay: Toxicity in VZV-infected 1 to <2 years aged pediatric patient assessed as incidence of headache at 40.8 mg/kg, po tid; type: organism-based; parameters: dose 40.8 mg/kg, route oral; conditions: in vivo
Homo sapiens [36] = assay: Toxicity in VZV-infected 2 to <6 years aged pediatric patient assessed as incidence of headache at 40.6 mg/kg, po tid; type: organism-based; parameters: dose 40.6 mg/kg, route oral; conditions: in vivo
Homo sapiens [37] = assay: Toxicity in VZV-infected 6 to <=12 years aged pediatric patient assessed as incidence of headache at 35.5 mg/kg, po tid; type: organism-based; parameters: dose 35.5 mg/kg, route oral; conditions: in vivo
Homo sapiens [38] = assay: Toxicity in orally dosed VZV-infected patient assessed as incidence of headache administered as tid; type: organism-based; conditions: in vivo, po
Homo sapiens [39] = assay: Toxicity in VZV-infected 1 to <2 years aged pediatric patient assessed as incidence of pruritus at 40.8 mg/kg, po tid; type: organism-based; parameters: dose 40.8 mg/kg, route oral; conditions: in vivo
Homo sapiens [40] = assay: Toxicity in VZV-infected 2 to <6 years aged pediatric patient assessed as incidence of pruritus at 40.6 mg/kg, po tid; type: organism-based; parameters: dose 40.6 mg/kg, route oral; conditions: in vivo
Homo sapiens [41] = assay: Toxicity in VZV-infected 6 to <=12 years aged pediatric patient assessed as incidence of pruritus at 35.5 mg/kg, po tid; type: organism-based; parameters: dose 35.5 mg/kg, route oral; conditions: in vivo
Homo sapiens [42] = assay: Toxicity in orally dosed VZV-infected patient assessed as incidence of pruritus administered as tid; type: organism-based; conditions: in vivo, po
[43] = Tmax in 1 to <2 years aged pediatric patient administered as single dose; type: ADME, organism-based; conditions: human, in vivo

Nc1nc2c(ncn2CCC(CO)CO)c(=O)[nH]1 [PENCICLOVIR] gave an Activity (Homo sapiens [1]) of 5.6%, an Activity (Homo sapiens [2]) of 4.3% and an Activity (Homo sapiens [3]) of 15.4%. The Activity (Homo sapiens [4]) was 0%, the Activity (Homo sapiens [5]) was 0% and the Activity (Homo sapiens [6]) was 4.3%. It also gave an Activity (Homo sapiens [7]) of 38.9%, an Activity (Homo sapiens [8]) of 52.6% and an Activity (Homo sapiens [9]) of 43.8%. For the same compound, the Activity (Homo sapiens [10]) was 45.3%, the Activity (Homo sapiens [11]) was 11.1% and the Activity (Homo sapiens [12]) was 5.3%. It also gave an Activity (Homo sapiens [13]) of 18.8%, an Activity (Homo sapiens [14]) of 11.3% and an Activity (Homo sapiens [15]) of 27.8%. It also gave an Activity (Homo sapiens [16]) of 0%, an Activity (Homo sapiens [17]) of 0% and an Activity (Homo sapiens [18]) of 9.4%. It also gave an Activity (Homo sapiens [19]) of 11.1%, an Activity (Homo sapiens [20]) of 5.3% and an Activity (Homo sapiens [21]) of 6.3%. For the same compound, the Activity (Homo sapiens [22]) was 7.5%, the Activity (Homo sapiens [23]) was 0% and the Activity (Homo sapiens [24]) was 0%. For the same compound, the Activity (Homo sapiens [25]) was 12.5%, the Activity (Homo sapiens [26]) was 3.8% and the Activity (Homo sapiens [27]) was 0%. The Activity (Homo sapiens [28]) was 5.3%, the Activity (Homo sapiens [29]) was 6.3% and the Activity (Homo sapiens [30]) was 3.8%. For the same compound, the Activity (Homo sapiens [31]) was 0%, the Activity (Homo sapiens [32]) was 5.3% and the Activity (Homo sapiens [33]) was 6.3%. For the same compound, the Activity (Homo sapiens [34]) was 3.8%, the Activity (Homo sapiens [35]) was 0% and the Activity (Homo sapiens [36]) was 0%. For the same compound, the Activity (Homo sapiens [37]) was 12.5%, the Activity (Homo sapiens [38]) was 3.8% and the Activity (Homo sapiens [39]) was 5.6%. It also gave an Activity (Homo sapiens [40]) of 0%, an Activity (Homo sapiens [41]) of 6.3% and an Activity (Homo sapiens [42]) of 3.8%. For the same compound, the Tmax [43] was 1.08 h.
